Values joined by “and” are separate entries in the source; they are usually repeats but may differ in a detail not shown here. Equal values may be shown once.
Experiments:
[1] = tested on: dogs with chronic renal failure; assay: Therapeutic effect on dogs with chronic renal failure (blood creatinine); format: in vivo, dog; conditions: change before/after
Method: An experiment was conducted to determine the therapeutic effect and optimal dosage of 5-hydroxy-1-methylimidazolidine-2,4-dione in animal kidney disease. Dogs (5 dogs per group) diagnosed with chronic renal failure and with a blood creatinine concentration of 1.4 mg/dL or higher were treated with 5-hydroxy-methylimidazolidine-2,4-dione at […] of 0, 12.5, 25, 50, and 100 mg/kg for 2 months, and the change in blood creatinine concentration (AsCr) before and after administration was determined.

[2] = tested on: beagles; assay: 13-week repeated oral toxicity: blood coagulation test (PT, aPTT, fibrinogen); format: in vivo, beagle
Method: Blood Coagulation Test (PT, aPTT, Fibrinogen)
2 ml of collected blood was placed in a 3.2% sodium citrate tube, and centrifuged at 4,000 rpm for 10 minutes at 4° C., and plasma was collected for blood coagulation analysis. Prothrombin time (PT), activated partial thromboplastin time (aPTT), and fibrinogen (FIB) were analyzed using a blood coagulation measuring device (Werfen ACL ELITE Pro).

[3] = tested on: beagles; assay: 13-week repeated oral toxicity: eye test; format: in vivo, beagle; conditions: before and after administration, 13 weeks
Method: Eye test were conducted in the afternoon in the blood test day and blood donation day before administration (pre), the 4th week (day 29) after administration, the 8th week (day 57), and the 13th week (day 92) after administration. After observing the appearance of the left and right eyes on all the subjects, both the left and right eyes were dilated with a mydriatic agent (Mydrin®-P eye drops, ingredients: tropicamide/phenylephrine hydrochloride Taejun Pharmaceutical), and then the vitreous body and retina were tested with an ophthalmoscope (Vantage Plus LED Convertible Wired, Keeler Instruments Inc. USA).

[4] = G2 200 mg/kg, repeated administration for 13 week, female, group mean
[5] = G2 200 mg/kg, repeated administration for 13 week, female, individual animals
[6] = G2 200 mg/kg, repeated administration for 13 week, male, group mean
[7] = G2 200 mg/kg, repeated administration for 13 week, male, individual animals
[8] = G3 500 mg/kg, repeated administration for 13 week, female, group mean
[9] = G3 500 mg/kg, repeated administration for 13 week, female, individual animals
[10] = G3 500 mg/kg, repeated administration for 13 week, male, group mean
[11] = G3 500 mg/kg, repeated administration for 13 week, male, individual animals
[12] = G4 1,000 mg/kg, repeated administration for 13 week, female, group mean
[13] = G4 1,000 mg/kg, repeated administration for 13 week, female, individual animals
[14] = G4 1,000 mg/kg, repeated administration for 13 week, male, group mean
[15] = G4 1,000 mg/kg, repeated administration for 13 week, male, individual animals
[16] = before administration (day 0), 200 mg/kg group (G2), female, individual animals, 200 mg/kg
[17] = before administration (day 0), 200 mg/kg group (G2), female
[18] = before administration (day 0), 200 mg/kg group (G2), male, individual animals, 200 mg/kg
[19] = before administration (day 0), 200 mg/kg group (G2), male
[20] = before administration (day 0), 500 mg/kg group (G3), female, individual animals, 500 mg/kg
[21] = before administration (day 0), 500 mg/kg group (G3), female
[22] = before administration (day 0), 500 mg/kg group (G3), male, individual animals, 500 mg/kg
[23] = before administration (day 0), 500 mg/kg group (G3), male
[24] = before administration (day 0), 1,000 mg/kg group (G4), female, individual animals
[25] = before administration (day 0), 1,000 mg/kg group (G4), female
[26] = before administration (day 0), 1,000 mg/kg group (G4), male, individual animals
[27] = before administration (day 0), 1,000 mg/kg group (G4), male

## CN1C(=O)NC(=O)C1O (stereo not drawn) [KBP-001, 5-hydroxy-1-methylimidazolidine-2,4-dione]
[1]; high-dose 50 mg/kg for 2 months, 50 mg/kg
  ΔsCr: -0.02 ± 0.22 mg/dL
[1]; high-dose 50 mg/kg for 2 months, listed as 5-hydroxy-1-methylimidazolidine-2,4-dione, 50 mg/kg
  ΔsCr: -0.02 ± 0.22 mg/dL
[1]; highest-dose 100 mg/kg for 2 months, 100 mg/kg
  ΔsCr: 0.07 ± 0.20 mg/dL
[1]; highest-dose 100 mg/kg for 2 months, listed as 5-hydroxy-1-methylimidazolidine-2,4-dione, 100 mg/kg
  ΔsCr: 0.07 ± 0.20 mg/dL
[1]; low-dose 12.5 mg/kg for 2 months, 12.5 mg/kg
  ΔsCr: 0.58 ± 0.49 mg/dL
[1]; low-dose 12.5 mg/kg for 2 months, listed as 5-hydroxy-1-methylimidazolidine-2,4-dione, 12.5 mg/kg
  ΔsCr: 0.58 ± 0.49 mg/dL
[1]; medium-dose 25 mg/kg for 2 months, 25 mg/kg
  ΔsCr: 0.10 ± 0.34 mg/dL
[1]; medium-dose 25 mg/kg for 2 months, listed as 5-hydroxy-1-methylimidazolidine-2,4-dione, 25 mg/kg
  ΔsCr: 0.10 ± 0.34 mg/dL
[2]; [4]
  FIB: 195.00 mg/dL
  PT: 7.67 s
  aPTT: 14.03 s
[2]; [5]
  FIB: 170 mg/dL and 164 mg/dL and 251 mg/dL
  PT: 7.6 sec (2×) and 7.8 sec
  aPTT: 13.8 s and 13.3 s and 15.0 s
[2]; [6]
  FIB: 293.00 mg/dL
  PT: 7.87 s
  aPTT: 13.13 s
[2]; [7]
  FIB: 299 mg/dL and 268 mg/dL and 312 mg/dL
  PT: 8.5 s and 8.2 s and 6.9 s
  aPTT: 12.7 s and 13.0 s and 13.7 s
[2]; [8]
  FIB: 250.00 mg/dL
  PT: 7.53 s
  aPTT: 14.37 s
[2]; [9]
  FIB: 212 mg/dL and 230 mg/dL and 308 mg/dL
  PT: 8.6 s and 6.7 s and 7.3 s
  aPTT: 15.2 s and 13.7 s and 14.2 s
[2]; [10]
  FIB: 312.67 mg/dL
  PT: 7.20 s
  aPTT: 15.17 s
[2]; [11]
  FIB: 347 mg/dL and 302 mg/dL and 289 mg/dL
  PT: 7.4 s and 7.2 s and 7.0 s
  aPTT: 15.3 s and 14.8 s and 15.4 s
[2]; [12]
  FIB: 307.00 mg/dL
  PT: 7.57 s
  aPTT: 14.03 s
[2]; [13]
  FIB: 442 mg/dL and 273 mg/dL and 206 mg/dL
  PT: 7.1 sec (2×) and 8.5 sec
  aPTT: 12.9 s and 13.0 s and 16.2 s
[2]; [14]
  FIB: 318.67 mg/dL
  PT: 7.53 s
  aPTT: 13.93 s
[2]; [15]
  FIB: 292 mg/dL and 386 mg/dL and 278 mg/dL
  PT: 7.6 s and 7.3 s and 7.7 s
  aPTT: 15.2 s and 12.8 s and 13.8 s
[2]; [16]
  FIB: 114 mg/dL and 184 mg/dL and 218 mg/dL
  PT: 8.5 s and 7.6 s and 7.3 s
  aPTT: 14.9 s and 15.3 s and 14.0 s
[2]; [17]
  FIB, Mean: 172.00 mg/dL
  PT, Mean: 7.80 s
  aPTT, Mean: 14.73 s
[2]; [18]
  FIB: 270 mg/dL and 254 mg/dL and 233 mg/dL
  PT: 9.2 s and 8.4 s and 7.2 s
  aPTT: 15.5 s and 12.1 s and 12.4 s
[2]; [19]
  FIB, Mean: 252.33 mg/dL
  PT, Mean: 8.27 s
  aPTT, Mean: 13.33 s
[2]; [20]
  FIB: 186 mg/dL and 199 mg/dL and 268 mg/dL
  PT: 8.8 s and 7.4 s and 7.9 s
  aPTT: 14.5 s and 11.9 s and 13.8 s
[2]; [21]
  FIB, Mean: 217.67 mg/dL
  PT, Mean: 8.03 s
  aPTT, Mean: 13.40 s
[2]; [22]
  FIB: 235 mg/dL and 254 mg/dL and 239 mg/dL
  PT: 7.6 s and 7.2 s and 7.3 s
  aPTT: 15.2 s and 14.6 s and 12.1 s
[2]; [23]
  FIB, Mean: 242.67 mg/dL
  PT, Mean: 7.37 s
  aPTT, Mean: 13.97 s
[2]; [24]
  FIB: 237 mg/dL and 230 mg/dL and 258 mg/dL
  PT: 7.6 s and 7.8 s and 8.3 s
  aPTT: 11.1 s and 14.2 s and 15.6 s
[2]; [25]
  FIB, Mean: 194.73 mg/dL
  PT, Mean: 6.53 s
  aPTT, Mean: 11.62 s
[2]; [26]
  FIB: 305 mg/dL and 312 mg/dL and 237 mg/dL
  PT: 8.3 s and 7.2 s and 8.0 s
  aPTT: 14.8 s and 11.3 s and 14.7 s
[2]; [27]
  FIB, Mean: 200.81 mg/dL
  PT, Mean: 6.57 s
  aPTT, Mean: 11.52 s
[3]
  eye test findings: no specific findings were observed

Source: patent US20240299359A1, “PHARMACEUTICAL COMPOSITION FOR ANIMALS CONTAINING 5-HYDROXY-METHYLIMIDAZOLIDINE-2,4-DIONE COMPOUND AS ACTIVE INGREDIENT” (KYONGBO PHARM. CO., LTD., priority 2021, published 2024)
